In ChEMBL document CHEMBL1240351, “Molecular epidemiology of metallo-beta-lactamase-producing Pseudomonas aeruginosa isolates from Norway and Sweden shows import of international clones and local clonal expansion” (2010):
In brackets after ≈: the same amount, converted by molar mass.

Assays:
Type in all cases: functional
Pseudomonas aeruginosa [1] = experiment: Antimicrobial activity against Pseudomonas aeruginosa isolate U9-19005 producing metallo-beta-lactamase VIM2 by Etest
Pseudomonas aeruginosa [2] = experiment: Antimicrobial activity against Pseudomonas aeruginosa isolate PA66 producing metallo-beta-lactamase VIM4 by Etest
Pseudomonas aeruginosa [3] = experiment: Antimicrobial activity against Pseudomonas aeruginosa isolate AK5493 producing metallo-beta-lactamase VIM2 by Etest
Pseudomonas aeruginosa [4] = experiment: Antimicrobial activity against Pseudomonas aeruginosa isolate B4-25753 producing metallo-beta-lactamase VIM2 by Etest
Pseudomonas aeruginosa [5] = experiment: Antimicrobial activity against Pseudomonas aeruginosa isolate K34-73 producing metallo-beta-lactamase VIM4 by Etest
Pseudomonas aeruginosa [6] = experiment: Antimicrobial activity against Pseudomonas aeruginosa isolate K34-7 producing metallo-beta-lactamase VIM2 by Etest
Pseudomonas aeruginosa [7] = experiment: Antimicrobial activity against Pseudomonas aeruginosa isolate BU-20287 producing metallo-beta-lactamase VIM2 by Etest
Pseudomonas aeruginosa [8] = experiment: Antimicrobial activity against Pseudomonas aeruginosa isolate BU-43038 producing metallo-beta-lactamase VIM2 by Etest
Pseudomonas aeruginosa [9] = experiment: Antimicrobial activity against Pseudomonas aeruginosa isolate BU-36178 producing metallo-beta-lactamase VIM2 by Etest
Pseudomonas aeruginosa [10] = experiment: Antimicrobial activity against Pseudomonas aeruginosa isolate BNL-1681 producing metallo-beta-lactamase VIM2 by Etest
Pseudomonas aeruginosa [11] = experiment: Antimicrobial activity against Pseudomonas aeruginosa isolate OS-210 producing metallo-beta-lactamase VIM2 by Etest
Pseudomonas aeruginosa [12] = experiment: Antimicrobial activity against Pseudomonas aeruginosa isolate K44-24 producing metallo-beta-lactamase IMP14 by Etest
Pseudomonas aeruginosa [13] = experiment: Antimicrobial activity against Pseudomonas aeruginosa isolate K45-32 producing metallo-beta-lactamase VIM2 by Etest

Structure (SMILES): CO/N=C(\C(=O)N[C@@H]1C(=O)N2C(C(=O)[O-])=C(C[N+]3(C)CCCC3)CS[C@H]12)c1csc(N)n1 [CEFEPIME]
- MIC (Pseudomonas aeruginosa [1]): 32 µg/mL (≈ 66.6 µM)
- MIC (Pseudomonas aeruginosa [2]): 32 µg/mL (≈ 66.6 µM)
- MIC (Pseudomonas aeruginosa [3]): 32 µg/mL (≈ 66.6 µM)
- MIC (Pseudomonas aeruginosa [4]): 32 µg/mL (≈ 66.6 µM)
- MIC (Pseudomonas aeruginosa [5]): 32 µg/mL (≈ 66.6 µM)
- MIC (Pseudomonas aeruginosa [6]): 32 µg/mL (≈ 66.6 µM)
- MIC (Pseudomonas aeruginosa [7]): 32 µg/mL (≈ 66.6 µM)
- MIC (Pseudomonas aeruginosa [8]): 32 µg/mL (≈ 66.6 µM)
- MIC (Pseudomonas aeruginosa [9]): 32 µg/mL (≈ 66.6 µM)
- MIC (Pseudomonas aeruginosa [10]): 32 µg/mL (≈ 66.6 µM)
- MIC (Pseudomonas aeruginosa [11]): 32 µg/mL (≈ 66.6 µM)
- MIC (Pseudomonas aeruginosa [12]): 32 µg/mL (≈ 66.6 µM)
- MIC (Pseudomonas aeruginosa [13]): 32 µg/mL (≈ 66.6 µM)

Structure (SMILES): NC[C@H]1O[C@H](O[C@H]2[C@H](O)[C@@H](O[C@H]3O[C@H](CO)[C@@H](O)[C@H](N)[C@H]3O)[C@H](N)C[C@@H]2N)[C@H](N)C[C@@H]1O [TOBRAMYCIN]
- MIC (Pseudomonas aeruginosa [1]): 32 µg/mL (≈ 68.4 µM)
- MIC (Pseudomonas aeruginosa [2]): 32 µg/mL (≈ 68.4 µM)
- MIC (Pseudomonas aeruginosa [3]): 32 µg/mL (≈ 68.4 µM)
- MIC (Pseudomonas aeruginosa [4]): 32 µg/mL (≈ 68.4 µM)
- MIC (Pseudomonas aeruginosa [5]): 32 µg/mL (≈ 68.4 µM)
- MIC (Pseudomonas aeruginosa [6]): 32 µg/mL (≈ 68.4 µM)
- MIC (Pseudomonas aeruginosa [7]): 32 µg/mL (≈ 68.4 µM)
- MIC (Pseudomonas aeruginosa [8]): 32 µg/mL (≈ 68.4 µM)
- MIC (Pseudomonas aeruginosa [9]): 32 µg/mL (≈ 68.4 µM)
- MIC (Pseudomonas aeruginosa [10]): 32 µg/mL (≈ 68.4 µM)
- MIC (Pseudomonas aeruginosa [11]): 32 µg/mL (≈ 68.4 µM)
- MIC (Pseudomonas aeruginosa [12]): 32 µg/mL (≈ 68.4 µM)
- MIC (Pseudomonas aeruginosa [13]): 32 µg/mL (≈ 68.4 µM)

Structure (SMILES): CC(C)(O/N=C(\C(=O)N[C@@H]1C(=O)N2C(C(=O)[O-])=C(C[n+]3ccccc3)CS[C@H]12)c1csc(N)n1)C(=O)O [CEFTAZIDIME]
- MIC (Pseudomonas aeruginosa [1]): 64 µg/mL (≈ 117 µM)
- MIC (Pseudomonas aeruginosa [2]): 64 µg/mL (≈ 117 µM)
- MIC (Pseudomonas aeruginosa [3]): 64 µg/mL (≈ 117 µM)
- MIC (Pseudomonas aeruginosa [4]): 64 µg/mL (≈ 117 µM)
- MIC (Pseudomonas aeruginosa [5]): 64 µg/mL (≈ 117 µM)
- MIC (Pseudomonas aeruginosa [6]): 64 µg/mL (≈ 117 µM)
- MIC (Pseudomonas aeruginosa [7]): 64 µg/mL (≈ 117 µM)
- MIC (Pseudomonas aeruginosa [8]): 64 µg/mL (≈ 117 µM)
- MIC (Pseudomonas aeruginosa [9]): 64 µg/mL (≈ 117 µM)
- MIC (Pseudomonas aeruginosa [10]): 64 µg/mL (≈ 117 µM)
- MIC (Pseudomonas aeruginosa [11]): 64 µg/mL (≈ 117 µM)
- MIC (Pseudomonas aeruginosa [12]): 64 µg/mL (≈ 117 µM)
- MIC (Pseudomonas aeruginosa [13]): 64 µg/mL (≈ 117 µM)

Structure (SMILES): O=C(O)C1=CC[C@@H]2CC(=O)N12 [CARBAPENEM]
- MIC (Pseudomonas aeruginosa [1]): > 32 µg/mL
- MIC (Pseudomonas aeruginosa [2]): > 32 µg/mL
- MIC (Pseudomonas aeruginosa [3]): > 32 µg/mL
- MIC (Pseudomonas aeruginosa [4]): > 32 µg/mL
- MIC (Pseudomonas aeruginosa [5]): > 32 µg/mL
- MIC (Pseudomonas aeruginosa [6]): > 32 µg/mL
- MIC (Pseudomonas aeruginosa [7]): > 32 µg/mL
- MIC (Pseudomonas aeruginosa [8]): > 32 µg/mL
- MIC (Pseudomonas aeruginosa [9]): > 32 µg/mL
- MIC (Pseudomonas aeruginosa [10]): > 32 µg/mL
- MIC (Pseudomonas aeruginosa [11]): > 32 µg/mL
- MIC (Pseudomonas aeruginosa [12]): > 32 µg/mL
- MIC (Pseudomonas aeruginosa [13]): > 32 µg/mL

Structure (SMILES): NCC[C@H](O)C(=O)N[C@@H]1C[C@H](N)[C@@H](O[C@H]2O[C@H](CN)[C@@H](O)[C@H](O)[C@H]2O)[C@H](O)[C@H]1O[C@H]1O[C@H](CO)[C@@H](O)[C@H](N)[C@H]1O [AMIKACIN]
- MIC (Pseudomonas aeruginosa [1]): 32 µg/mL (≈ 54.6 µM)
- MIC (Pseudomonas aeruginosa [2]): 32 µg/mL (≈ 54.6 µM)
- MIC (Pseudomonas aeruginosa [3]): 32 µg/mL (≈ 54.6 µM)
- MIC (Pseudomonas aeruginosa [4]): 32 µg/mL (≈ 54.6 µM)
- MIC (Pseudomonas aeruginosa [5]): 32 µg/mL (≈ 54.6 µM)
- MIC (Pseudomonas aeruginosa [6]): 32 µg/mL (≈ 54.6 µM)
- MIC (Pseudomonas aeruginosa [7]): 32 µg/mL (≈ 54.6 µM)
- MIC (Pseudomonas aeruginosa [8]): 32 µg/mL (≈ 54.6 µM)
- MIC (Pseudomonas aeruginosa [9]): 32 µg/mL (≈ 54.6 µM)
- MIC (Pseudomonas aeruginosa [10]): 32 µg/mL (≈ 54.6 µM)
- MIC (Pseudomonas aeruginosa [11]): 32 µg/mL (≈ 54.6 µM)
- MIC (Pseudomonas aeruginosa [12]): 32 µg/mL (≈ 54.6 µM)
- MIC (Pseudomonas aeruginosa [13]): 32 µg/mL (≈ 54.6 µM)

Structure (SMILES): O=C(O)c1cn(C2CC2)c2cc(N3CCNCC3)c(F)cc2c1=O [CIPROFLOXACIN]
- MIC (Pseudomonas aeruginosa [1]): 16 µg/mL (≈ 48.3 µM)
- MIC (Pseudomonas aeruginosa [2]): 16 µg/mL (≈ 48.3 µM)
- MIC (Pseudomonas aeruginosa [3]): 16 µg/mL (≈ 48.3 µM)
- MIC (Pseudomonas aeruginosa [4]): 16 µg/mL (≈ 48.3 µM)
- MIC (Pseudomonas aeruginosa [5]): 16 µg/mL (≈ 48.3 µM)
- MIC (Pseudomonas aeruginosa [6]): 16 µg/mL (≈ 48.3 µM)
- MIC (Pseudomonas aeruginosa [7]): 16 µg/mL (≈ 48.3 µM)
- MIC (Pseudomonas aeruginosa [8]): 16 µg/mL (≈ 48.3 µM)
- MIC (Pseudomonas aeruginosa [9]): 16 µg/mL (≈ 48.3 µM)
- MIC (Pseudomonas aeruginosa [10]): 16 µg/mL (≈ 48.3 µM)
- MIC (Pseudomonas aeruginosa [11]): 16 µg/mL (≈ 48.3 µM)
- MIC (Pseudomonas aeruginosa [12]): 16 µg/mL (≈ 48.3 µM)
- MIC (Pseudomonas aeruginosa [13]): 16 µg/mL (≈ 48.3 µM)
